Experimental data from PubChem BioAssay (NCI).
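Cells were grown in 96-well plates and exposed to each compound for 48 hours at five concentrations; endpoints were interpolated linearly between bracketing concentrations, or set to the highest concentration if not reached. TGI is the concentration that stops growth completely.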

What was measured:
Experiment in all cases: NCI-60 cell line screen, 48 h
[1] = system: 786-0 renal
[2] = system: A498 renal
[3] = system: A549 NSCLC
[4] = system: ACHN renal
[5] = system: BT-549 breast
[6] = system: CAKI-1 renal
[7] = system: CCRF-CEM leukemia
[8] = system: COLO 205 colon
[9] = system: DU-145 prostate
[10] = system: EKVX NSCLC
[11] = system: HCC-2998 colon
[12] = system: HCT-116 colon
[13] = system: HCT-15 colon
[14] = system: HL-60(TB) leukemia
[15] = system: HOP-92 NSCLC
[16] = system: HS 578T breast
[17] = system: HT29 colon
[18] = system: IGROV1 ovarian
[19] = system: KM12 colon
[20] = system: LOX IMVI melanoma
[21] = system: M14 melanoma
[22] = system: MALME-3M melanoma
[23] = system: MCF7 breast
[24] = system: MDA-MB-231 breast
[25] = system: MDA-MB-435
[26] = system: MDA-N
[27] = system: NCI-H226 lung
[28] = system: NCI-H23 lung
[29] = system: NCI-H460 lung
[30] = system: NCI-H522 lung
[31] = system: NCI/ADR-RES ovarian
[32] = system: OVCAR-3 ovarian
[33] = system: OVCAR-4 ovarian
[34] = system: OVCAR-5 ovarian
[35] = system: OVCAR-8 ovarian
[36] = system: PC-3 prostate
[37] = system: RPMI-8226 leukemia
[38] = system: RXF 393 renal
[39] = system: SF-268 CNS
[40] = system: SF-295 CNS
[41] = system: SF-539 CNS
[42] = system: SK-MEL-2 melanoma
[43] = system: SK-MEL-28 melanoma
[44] = system: SK-MEL-5 melanoma
[45] = system: SK-OV-3 ovarian
[46] = system: SN12C renal
[47] = system: SNB-19 CNS
[48] = system: SNB-75 CNS
[49] = system: SW-620 colon
[50] = system: T-47D breast
[51] = system: TK-10 renal
[52] = system: U251 CNS
[53] = system: UACC-257 melanoma
[54] = system: UACC-62 melanoma
[55] = system: UO-31 renal
[56] = system: HOP-62 NSCLC
[57] = system: K-562 leukemia
[58] = system: MOLT-4 leukemia

Measured: TGI

Cc1ccc(C)c2c1n1c(=O)n(C)c(=O)n21
> 100 µM: [1] | [2] | [3] | [4] | [5] | [6] | [7] | [8] | [9] | [10] | [11] | [12] | [13] | [14] | [15] | [16] | [17] | [18] | [19] | [20] | [21] | [22] | [23] | [24] | [25] | [26] | [27] | [28] | [29] | [30] | [31] | [32] | [33] | [34] | [35] | [36] | [37] | [38] | [39] | [40] | [41] | [42] | [43] | [44] | [45] | [46] | [47] | [48] | [49] | [50] | [51] | [52] | [53] | [54] | [55]

COc1ccc2c(c1)[nH]c1c3ccc(OC)cc3oc(=O)c21
> 100 µM: [1] | [2] | [3] | [4] | [5] | [6] | [7] | [8] | [9] | [10] | [11] | [12] | [13] | [14] | [56] | [15] | [16] | [17] | [18] | [57] | [19] | [20] | [21] | [22] | [23] | [24] | [25] | [26] | [58] | [27] | [28] | [29] | [31] | [32] | [33] | [34] | [35] | [36] | [37] | [38] | [39] | [40] | [41] | [42] | [43] | [44] | [45] | [46] | [47] | [48] | [49] | [50] | [51] | [52] | [53] | [54] | [55]
